These results are taken from article PMC8312956, “T. cruzi DNA polymerase beta (Tcpolβ) is phosphorylated in vitro by CK1, CK2 and TcAUK1 leading to the potentiation of its DNA synthesis activity” (PLoS Neglected Tropical Diseases, 2021).

The IC50 is the point on the concentration scale where inhibition reaches its midpoint. Read a low IC50 as higher potency.

One assay deals with T1, TcCK2α (Trypanosoma cruzi, UniProt Q4E340).
T1 construct: gene Tc00.1047053508741.320; recombinant TcCK2α in hybrid CK2 holoenzyme; with S. pombe CK2β (pCK2β)
T1 sequence (P40232 whole entry): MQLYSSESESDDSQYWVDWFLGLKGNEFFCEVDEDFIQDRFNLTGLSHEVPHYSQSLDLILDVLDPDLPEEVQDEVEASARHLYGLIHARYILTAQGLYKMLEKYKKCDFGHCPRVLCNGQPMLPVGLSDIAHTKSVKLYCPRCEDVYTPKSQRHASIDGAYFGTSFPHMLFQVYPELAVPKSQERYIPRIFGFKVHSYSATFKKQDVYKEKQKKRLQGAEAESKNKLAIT
T1 sequence (Q4E340 entry or part of it): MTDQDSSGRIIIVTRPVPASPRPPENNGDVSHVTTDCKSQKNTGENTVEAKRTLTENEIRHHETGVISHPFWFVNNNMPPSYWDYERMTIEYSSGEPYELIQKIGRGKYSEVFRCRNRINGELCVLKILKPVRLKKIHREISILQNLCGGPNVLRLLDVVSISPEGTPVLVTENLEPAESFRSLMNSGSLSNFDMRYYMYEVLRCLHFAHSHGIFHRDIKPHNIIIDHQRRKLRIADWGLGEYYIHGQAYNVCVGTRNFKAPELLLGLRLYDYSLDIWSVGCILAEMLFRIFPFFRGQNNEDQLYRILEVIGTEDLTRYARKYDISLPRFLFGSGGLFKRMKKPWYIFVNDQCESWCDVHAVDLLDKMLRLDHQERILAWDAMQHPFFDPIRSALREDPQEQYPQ
Nature of the assay: […]-ATP phosphorylation of pCK2β, SDS-PAGE autoradiography. It counts as biochemical.

Another assay concerns the target T2, TcAUK1 (Trypanosoma cruzi, UniProt Q4DKE3).
T2 construct: gene Tc00.1047053508817.80; recombinant, expressed in E. coli (pET15b), renatured and purified
Nature of the assay: […]-ATP phosphorylation of Tcpolβ, SDS-PAGE autoradiography; over […] decrease at […]. It counts as biochemical.

T2 sequence (Q4DKE3 entry or part of it): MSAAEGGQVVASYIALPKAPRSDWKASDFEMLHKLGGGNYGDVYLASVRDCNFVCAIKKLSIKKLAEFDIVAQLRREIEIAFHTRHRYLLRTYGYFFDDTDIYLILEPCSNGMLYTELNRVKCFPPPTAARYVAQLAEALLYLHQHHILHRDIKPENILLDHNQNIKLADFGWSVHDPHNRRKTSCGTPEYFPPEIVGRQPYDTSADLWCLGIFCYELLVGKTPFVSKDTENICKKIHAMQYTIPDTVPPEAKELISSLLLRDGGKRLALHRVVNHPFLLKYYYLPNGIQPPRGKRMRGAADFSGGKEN

Compound `Brc1c(Br)c(Br)c2[nH]nnc2c1Br` [TBB, 4,5,6,7-tetrabromobenzotriazole] had an IC50 at TcCK2α of 500 to 1000 nM.
`O=C(Nc1cccc(Cl)c1)Nc1ncc(CCNc2ncnc3ccsc23)s1` [SNS314]: the “32P-ATP phosphorylation of Tcpolβ, SDS-PAGE autoradiography; over 60% decrease a” value at TcAUK1 is on record as ~ 48 nM.
